The test system of experiment [1] is HeLa cells. The experiment can be described thus: AAV-EGFP transduction of HeLa cells in the presence of NF-κB modulators. The class given is cell-based, human. As for the experimental part:
(§1) Recombinant AAV Vector Transduction Assays in Vitro. Optimal concentration of NF-κB-modulating compounds was determined by a cell viability assay with tenfold-dilutions from the IC50 or were used as described previously (Wu and Miyamoto, 2008; Kumar et al., 2008). VP16 or Bay11 (10 or 5 μM, final concentration), and PDTC (50 or 25 μM final concentration) were used either alone or in activator/inhibitor combinations. For transduction experiments, approximately 1×10^5 HeLa cells were either pre-treated with these compounds 24 hrs prior to vector infection. Cells were transduced with 500 or 2,000 vector genomes (vgs) per cell of recombinant WT-AAV or TM-AAV vectors encoding the EGFP transgene as described previously (Markusic et al., 2010). After 7 days of culture, primary human dendritic cells were transduced with AAV vectors at 2000 vgs/cell and incubated for 48 hrs. Transgene expression was assessed as total area of green fluorescence (pixel^2) per visual field (mean±SD), or by flow cytometry. Analysis of variance (ANOVA) was used to compare between test results and the control and they were determined to be statistically significant.

For experiment [2], the system named is primary human dendritic cells. The experiment can be described thus: FACS analyses of markers of maturation (CD83, CD86) of primary human dendritic cells. Format: cell-based. As for the experimental part: Cells, Antibodies and Chemicals. HeLa cells were obtained from the American Type Culture Collection (Rockville, Md., USA) and maintained as monolayer cultures in Iscove's-modified Dulbecco's medium (IMDM, Invitrogen, Inc., Carlsbad, Calif., USA) supplemented with 10% newborn calf serum (NCS) (Lonza, Inc., Basel, SWITZERLAND) and antibiotics. Leukapheresis-derived PBMCs were resuspended in serum-free AIM-V medium (Lonza, Inc.) and semi-adherent cell fractions were incubated in serum-free AIM-V medium supplemented with recombinant human IL-4 (500 U/mL) and GM-CSF (800 U/mL) (R&D Systems, MN, USA). Cells were treated with NF-κB modulators ([…]), and cytokines cocktail including 10 ng/mL TNF-α, 10 ng/mL IL-1, 10 ng/mL IL-6, […] (R&D Systems) for 20 hr. Cells were harvested, characterized to ensure they met the typical phenotype of mature DCs (CD83, RPE, murine IgG1, CD86, FITC, murine IgG1; Invitrogen, Inc.). All primary and secondary antibodies were purchased from Cell Signaling Technology, Inc. (Danvers, Mass., USA) or Santa Cruz Biotechnology, Inc (Santa Cruz, Calif., USA). NF-kB activators [Etoposide (VP16), Aphidicolin, Hydroxyurea (HU)] and NF-kB inhibitors [Bay11-7082 (Bay11), Pyrrolidine dithiocarbamate (PDTC)] were purchased from Sigma-Aldrich Co. (St. Louis, Mo., USA). These compounds were re-suspended in either DMSO (Sigma-Aldrich Co.) or in sterile, DNAase-, RNAase-free water (Invitrogen, Inc.) as per the manufacturer's instructions.

Experiment [3] deals with non-canonical NF-κB pathway (p100, p52). Nature of the experiment: Western blot of NF-κB pathway components in HeLa cells. The class given is cell-based, human. The source says:
Western Blot Analyses. Homogenized lysates of the cell pellets from ˜2×10^6 HeLa cells or DCs, mock or pre-treated with the optimal concentration of NF-κB activators or inhibitors were used for sample preparation. Whole cell proteins were isolated using the RIPA lysis buffer (Sigma-Aldrich Co.) and cytoplasmic and nuclear proteins were extracted using a commercial kit (NE-PER Extraction Reagent Kit, Pierce Biotech, Rockford, Ill., USA) as per the manufacturer's protocol in the presence of a protease inhibitor cocktail (Halt™ Protease Inhibitor Cocktail Kit, Pierce Biotech). The protein extracts were boiled for 5 min under reducing conditions [SDS-sample buffer containing 62.5 mM Tris-HCl (pH 6.8 at 25° C.), 2% wt./vol. SDS, 10% glycerol, 50 mM DTT, 0.01% wt./vol. bromo-phenol blue (Cell Signaling Technology, Inc.)] and stored at −86° C. until further analysis. Equal volumes of samples were run on 4-15% SDS-PAGE (Bio-Rad, Hercules, Calif., USA). […] The intensity of the protein bands was measured with Adobe Photoshop CS3 Software® and normalized to proteins levels from the housekeeping gene products used as loading controls.
(In general: A western blot detects proteins with antibodies after separation by electrophoresis.)

Experiment [4] deals with primary human dendritic cells. The experiment can be described thus: AAV-EGFP transduction of primary human dendritic cells with NF-κB modulators (flow cytometry). The class given is cell-based. As to conditions: scAAV-transduced DCs treated with cytokines; Bay11 row: cytokines plus Bay11. As for the experimental part:
as §1
Cells, Antibodies and Chemicals. […]

[5] abbreviates: Mature DCs + AAV + Cytokines + modulator.

We go through one compound from patent US12358954B2, “Capsid-modified rAAV vector compositions and methods therefor” (priority 2012, dated 2025).

Take `Cc1ccc(S(=O)(=O)/C=C/C#N)cc1` [Bay11, Bay11-7082]: in experiment [1] (HeLa, scAAV-EGFP), the “AAV vector-mediated EGFP expression, fold augmentation” value is “totally ablated”. Further, the “VP16-mediated augmented transgene expression” value in experiment [1] (activator/inhibitor combination) was “completely ablated”. The “maturation of DCs (CD83, CD86)” value in experiment [2] is “inhibition of cytokine-mediated maturation”. For the same compound, in experiment [2] (setting [5]), the “Geometric means of levels of expression in cells expressing CD83” value is 16.88 and the “Geometric means of levels of expression in cells expressing CD86” value is 10.11. In experiment [3], the “AAV-induced increase of p100 and p52” value is recorded as “ablated”. The “transgene expression in DCs” value in experiment [4] is roughly 12%.
